Results from paper PMC5109658, “Antibacterial and cytotoxic cytochalasins from the endophytic fungus Phomopsis sp. harbored in Garcinia kola (Heckel) nut” (BMC Complementary and Alternative Medicine, 2016).
In brackets after ≈: the same amount, converted by molar mass. Read-outs that look alike come from different tables or passages of the source.

Legend:
[1] = test system: S. flexneri SDINT; test: Broth microdilution MIC/MBC; type: cell-based, Shigella flexneri; settings: for MBC/MIC / MBC / MIC: S. flexneri SDINT; for MBC / MIC: Shigella flexneri; for MBC: 99.9% reduction in CFU after 24 h; for MIC: 24 h at 37 °C, read-out: MIC
Description: (§1) A total of six bacterial strains were tested for their susceptibility to compounds and these strains were taken from our laboratory collection (kindly provided by Dr. T. Ramamurthy, NICED, Kolkata). Among the clinical strains of Vibrio cholerae used in this study, strains NB2 and SG24 and CO6 belonged to O1 and O139 serotypes, respectively. […]. The other strains used in this study were V. cholerae non-O1, non-O139 (strain PC2); […]. The American Type Culture Collection (ATCC) strain, Staphylococcus aureus ATCC 25923, was used for quality control. The bacterial strains were maintained on agar slant at 4 °C and subcultured on a fresh appropriate agar plates 24 h prior to any antibacterial test. The Mueller Hinton Agar (MHA) was used for the activation of bacteria. The Mueller Hinton Broth (MHB) and nutrient agar (Hi-Media) were used for the MIC and MBC determinations respectively.
(§2) Suspensions of bacteria were prepared in MHB from cells arrested during their logarithmic phase growth (4 h) on MHB at 37 °C. The turbidity of the microbial suspension was read spectrophotometrically at 600 nm and adjusted to an OD of 0.1 with MHB, which is equivalent to 1 × 10^8 CFU/mL. From this prepared solution, other dilutions were made with MHB to yield 1x10^6 CFU/mL.
(§3) MIC and MBC of compounds 1–3 were assessed using the broth microdilution method recommended by the National Committee for Clinical Laboratory Standards with slight modifications. Each test sample was dissolved in dimethylsulfoxide (DMSO) to give a stock solution. The 96-well round bottom sterile plates were prepared by dispensing 180 μL of the inoculated broth (1x10^6 CFU/mL) into each well. A 20 μL aliquot of the stock solution of compound was added. The concentrations of sample tested were 0.125, 0.25, 0.50, 1, 2, 4, 8, 16, 32, 64, 128, 256 and 512 μg/mL. […] Dilutions of tetracycline and ampicillin served as positive controls, while broth with 20 μL of DMSO was used as negative control. The ATCC strain Staphylococcus aureus ATCC 25923 was included for quality assurance purposes. Plates were covered and incubated for 24 h at 37 °C. After incubation, minimum inhibitory concentrations (MIC) were read visually; all wells were plated to nutrient agar (Hi-Media) and incubated. The minimal bactericidal concentration (MBC) was defined as a 99.9% reduction in CFU from the starting inoculums after 24 h incubation interval.

[2] = test system: S. aureus ATCC 25923; test: Broth microdilution MIC/MBC; type: cell-based, Staphylococcus aureus; settings: for MBC/MIC / MBC / MIC: S. aureus ATCC 25923; for MBC / MIC: Staphylococcus aureus, ATCC25923; for MBC: 99.9% reduction in CFU after 24 h; for MIC: 24 h at 37 °C
Description: as §1, §2, §3

[3] = MTT cytotoxicity assay; type: cell-based; settings: African green monkey, Vero cells, normal non-cancer cells, mean ± SD, read-out: Cytotoxicty (LC50) Vero cells
Description: (§4) HeLa (Human cervical cancer cell line, ATCC No. CCL-2) and Vero cells (African green monkey kidney cells, normal non-cancer cells, ATCC No. CCL-81), obtained from the American Type Culture Collection (ATCC) were used in this study. Cytotoxic activity was determined using the 3-(4,5-dimethylthiazol-2-yl)-2,5-diphenyltetrazolium bromide (MTT, Sigma, USA) assay reported by Mosmann for the HeLa and Vero cells. This cell viability assay is based on living cell‘s property to transform the MTT dye tetrazolium ring into a purple-colored formazan structure due to the action of mitochondrial and other dehydrogenases inside the cell. The color intensity yielded by the cell population is directly proportional to the number of viable cells, and one can quantify the absorbance measurements using mathematical parameters. Each test sample was dissolved in dimethylsulfoxide (DMSO) to give a stock solution. Compounds 1–3 were prepared from the stock solutions by serial dilution in RPMI 1640 to give a volume of 100 μL in each well of a microtiter plate (96-well). Each well was filled with 100 μL of cells at 2 × 10^5 cells/mL. The assay for each concentration of compound was performed in triplicates and the culture plates were kept at 37 °C with 5% (v/v) CO2 for 24 h. After removing the supernatant of each well and washing twice by PBS, 20 μL of MTT solution (5 mg/mL in PBS) and 100 μL of medium were then introduced. After 4 h of incubation, 100 μL of DMSO were added to each well to dissolve the formazan crystals and the absorbance values at 490 nm were measured with a microplate reader (Bio-RAD 680, USA). The relative cell viability (%) was expressed as a relative percentage of treated cells to the untreated control cells (TC/UC × 100). The rate of cell inhibition was calculated using the following formula: inhibition rate = [1- (ODtest/ODnegative control)] × 100%. The LC50 values were calculated as the concentration of test sample resulting in a 50% reduction of absorbance compared to untreated cells. Cells treated with 5-fluorouridine + RPMI 1640 served as positive control while cells left untreated + 1% (v/v) DMSO + RPMI 1640 were used as negative control.

[4] = MTT cytotoxicity assay; type: cell-based, Human; settings: human, HeLa cells; MTT, 24 h, mean ± SD; read-out: Cytotoxicty (LC50) HeLa cells
Description: as §4

[5] = test system: HeLa cells; test: MTT cytotoxicity assay; type: cell-based, Human; settings: SI = LC50 on Vero cells / LC50 on HeLa cells
Description: as §4

[6] = test system: V. cholerae NB2; test: Broth microdilution MIC/MBC; type: cell-based, Vibrio cholerae; settings: for MBC/MIC / MBC / MIC: V. cholerae NB2; for MBC / MIC: Vibrio cholerae; for MBC: 99.9% reduction in CFU after 24 h; for MIC: 24 h at 37 °C, read-out: MIC
Description: as §1, §2, §3

[7] = test system: V. cholerae PC2; test: Broth microdilution MIC/MBC; type: cell-based, Vibrio cholerae; settings: V. cholerae PC2; for MBC / MIC: Vibrio cholerae; for MBC: 99.9% reduction in CFU after 24 h; for MIC: 24 h at 37 °C, read-out: MIC
Description: as §1, §2, §3

[8] = test system: V. cholerae SG24; test: Broth microdilution MIC/MBC; type: cell-based, Vibrio cholerae; settings: for MBC / MIC: Vibrio cholerae; for MBC: 99.9% reduction in CFU after 24 h; for MIC: 24 h at 37 °C
Description: as §1, §2, §3

[9] = test system: V. cholerae CO6; test: Broth microdilution MIC/MBC; type: cell-based, Vibrio cholerae; settings: for MBC/MIC / MBC / MIC: V. cholerae CO6; for MBC / MIC: Vibrio cholerae; for MBC: 99.9% reduction in CFU after 24 h; for MIC: 24 h at 37 °C
Description: as §1, §2, §3

[10] = Hemolytic assay; type: cell-based; settings: male, 1% human red blood cell suspension, 512 μg/mL (highest concentration tested), 1% human red blood cells, PBS pH 7.4, 37 °C
Description: Whole blood (10 mL) from a healthy person was collected into a conical tube containing heparin as an anticoagulant. Erythrocytes were harvested by centrifugation at room temperature for 10 min at 1,000 × g and were washed three times in PBS solution. The top layer (plasma) and the next, milky layer (buffy coat with a layer of platelets on top of it) were then carefully aspirated and discarded. The cell pellet was resuspended in 10 mL of PBS solution and mixed by gentle aspiration with a Pasteur pipette. This cell suspension was used immediately.
For the normal human red blood cells, which were in suspension, the cytotoxicity was evaluated as previously described. Compounds 1–3, at concentrations ranging from 32 to 512 μg/mL, were incubated with an equal volume of 1% human red blood cells in phosphate buffered saline (10 mM PBS, pH 7.4) at 37 °C for 1 h. Tetracycline was tested simultaneously. Non-hemolytic and 100% hemolytic controls were the buffer alone and the buffer containing 1% Triton X-100, respectively. Cell lysis was monitored by measuring the release of hemoglobin at 595 nm with a spectrophotometer (Thermo Scientific, USA). Percent hemolysis was calculated as follows: [(A595 of sample treated with compound - A595 of sample treated with buffer)/(A595 of sample treated with Triton X-100 – A595 of sample treated with buffer)] x 100.

[11] = test system: studied microorganisms (six bacterial strains); test: Antibacterial spectrum over the six tested strains (broth microdilution); type: cell-based; settings: out of 6 strains; concentrations up to 512 μg/mL
Description: as §1, §3

In the case of C=C1[C@@H](C)C2[C@H](Cc3ccccc3)NC(=O)[C@@]23C(/C=C/C[C@H](C)C[C@@](C)(O)/C=C/[C@H]3O)[C@@H]1O (some centres unmarked) [Compound 3, cytochalasin J], the MBC/MIC [1] is reported as 1, the “Selectivity Index S. flexneri SDINT” value ([1]; SI = LC50 on Vero cells / MIC) is reported as 0.57 and the MBC [1] is reported as 128 µg/mL (≈ 283 µM). For the same compound, the MIC [1] was 128 µg/mL (≈ 283 µM), the MBC/MIC [2] was 1 and the “Selectivity Index S. aureus ATCC 25923” value ([2]; SI = LC50 on Vero cells / MIC) was 0.14. The MBC [2] was 512 µg/mL (≈ 1130 µM), the MIC [2] was 512 µg/mL (≈ 1130 µM) and the CC50 at 24 h [3] was 73.9 ± 0.92 µg/mL (≈ 164 µM). The CC50 at 24 h [4] was 3.66 ± 0.33 µg/mL (≈ 8.1 µM), the “Selectivity Index HeLa cells” value [5] was 20.18 and the “Selectivity Index V. cholerae NB2” value ([6]; SI = LC50 on Vero cells / MIC) was 0.14. It also gave an MBC/MIC [6] of 1, an MBC [6] of 512 µg/mL (≈ 1130 µM) and an MIC [6] of 512 µg/mL (≈ 1130 µM). The MBC [7] was over 512 µg/mL, the MIC [7] was over 512 µg/mL and the MBC [8] was over 512 µg/mL. The MIC [8] was over 512 µg/mL, the “Selectivity Index V. cholerae CO6” value ([9]; SI = LC50 on Vero cells / MIC) was 0.14 and the MBC/MIC [9] was 1. It also gave an MBC [9] of 512 µg/mL (≈ 1130 µM), an MIC [9] of 512 µg/mL (≈ 1130 µM) and a hemolysis at 1 h, 512 μg/mL [10] of under 10%. For the same compound, the “share of the studied microorganisms on which inhibitory effects were noted” value [11] was 66.66%.
For O=c1[nH]c(=O)n([C@@H]2O[C@H](CO)[C@@H](O)[C@H]2O)cc1F [Compound 5-FU, 5-Fluorouridine, reference compound], the CC50 at 24 h [3] was 4.63 ± 0.17 µg/mL (≈ 17.7 µM), the CC50 at 24 h [4] was 0.25 ± 0.05 µg/mL (≈ 0.953 µM) and the “Selectivity Index HeLa cells” value [5] was 18.52.
Work on CN(C)[C@@H]1C(O)=C(C(N)=O)C(=O)[C@@]2(O)C(O)=C3C(=O)c4c(O)cccc4[C@@](C)(O)[C@H]3C[C@@H]12 [Tetracycline, reference compound] yielded an MBC/MIC [1] of 2, an MBC [1] of 32 µg/mL (≈ 72 µM) and an MIC [1] of 16 µg/mL (≈ 36 µM). The MBC/MIC [2] was 2, the MBC [2] was 32 µg/mL (≈ 72 µM) and the MIC [2] was 16 µg/mL (≈ 36 µM). For the same compound, the MBC/MIC [6] was 4, the MBC [6] was 2 µg/mL (≈ 4.5 µM) and the MIC [6] was 0.5 µg/mL (≈ 1.13 µM). It also gave an MBC/MIC [7] of 2, an MBC [7] of 1 µg/mL (≈ 2.25 µM) and an MIC [7] of 0.5 µg/mL (≈ 1.13 µM). The MBC/MIC [8] was 2, the MBC [8] was 1 µg/mL (≈ 2.25 µM) and the MIC [8] was 0.5 µg/mL (≈ 1.13 µM). It also gave an MBC/MIC [9] of 4, an MBC [9] of 8 µg/mL (≈ 18 µM) and an MIC [9] of 2 µg/mL (≈ 4.5 µM). It also gave a hemolysis at 1 h, 512 μg/mL [10] of under 10%.
